≈ marks a conversion by molar mass, not a printed value. Where “and” joins values, the source holds several entries; their conditions need not be identical. Equal entries are not always repeated. Where two headings read alike, the source gives them in different places.
Key:
[1] = Quantitative determination of solubility of compound 5 (UPLC); format: physicochemical; conditions: 25 °C, aqueous buffer, thermodynamic from solid
Experimental: Compound 5 (120 mg) was weighed into shell vials and combined with acid (600 μl of a 350 mM solution of the respective acid in water).

[2] = PK studies of formulations, plasma by HPLC-MS/MS; format: in vivo; conditions: Cattle
Experimental: The following formulations were prepared and administered to animals. Blood samples were collected at pre-defined time points and the amount of compound present in plasma at the time of sampling was determined by HPLC-MS/MS. Pharmacokinetic parameters were then calculated: Cmax, Tmax, Tlast, AUC. [table]

[3] = FormO50 (L-tartaric acid, NaOH up to pH 4.4, water), SC, 1 mg/kg
[4] = FormO50 (L-tartaric acid, NaOH up to pH 4.4, water), SC, 5 mg/kg
[5] = FormO100 (L-tartaric acid, NaOH up to pH 4.4, water), SC, 1.5 mg/kg

COc1cc(NCCNC(=O)/C=C/C(C)(F)F)ccn1 [Compound 5]
solubility at 1 day ([1]; aqueous acid solution (350 mM citric acid in water), Citric acid 350 mM in water, read-out: Solubility T = 1 Day): 160 mg/mL (≈ 559 mM) | solubility at 1 day ([1]; aqueous acid solution (350 mM citric acid in water), Citric acid 350 mM in water, read-out: Solubility T = 1 Day Average): 149 mg/mL (≈ 523 mM) | solubility at 3 days ([1]; aqueous acid solution (350 mM citric acid in water), Citric acid 350 mM in water, read-out: Solubility T = 3 Days): 153 mg/mL (≈ 536 mM) | solubility at 3 days ([1]; aqueous acid solution (350 mM citric acid in water), Citric acid 350 mM in water, read-out: Solubility T = 3 Days Average): 151 mg/mL (≈ 529 mM) | solubility at 1 day ([1]; aqueous acid solution (350 mM ethanesulfonic acid in water), Ethanesulfonic acid 350 mM in water, read-out: Solubility T = 1 Day): 155 mg/mL (≈ 543 mM) | solubility at 1 day ([1]; aqueous acid solution (350 mM ethanesulfonic acid in water), Ethanesulfonic acid 350 mM in water, read-out: Solubility T = 1 Day Average): 145 mg/mL (≈ 507 mM) | solubility at 3 days ([1]; aqueous acid solution (350 mM ethanesulfonic acid in water), Ethanesulfonic acid 350 mM in water, read-out: Solubility T = 3 Days): 167 mg/mL (≈ 587 mM) | solubility at 3 days ([1]; aqueous acid solution (350 mM ethanesulfonic acid in water), Ethanesulfonic acid 350 mM in water, read-out: Solubility T = 3 Days Average): 165 mg/mL (≈ 578 mM) | solubility at 1 day ([1]; aqueous acid solution (350 mM fumaric acid in water), Fumaric acid 350 mM in water, read-out: Solubility T = 1 Day): 152 mg/mL (≈ 531 mM) | solubility at 1 day ([1]; aqueous acid solution (350 mM fumaric acid in water), Fumaric acid 350 mM in water, read-out: Solubility T = 1 Day Average): 149 mg/mL (≈ 522 mM) | solubility at 3 days ([1]; aqueous acid solution (350 mM fumaric acid in water), Fumaric acid 350 mM in water, read-out: Solubility T = 3 Days): 140 mg/mL (≈ 490 mM) | solubility at 3 days ([1]; aqueous acid solution (350 mM fumaric acid in water), Fumaric acid 350 mM in water, read-out: Solubility T = 3 Days Average): 153 mg/mL (≈ 535 mM) | solubility at 1 day ([1]; aqueous acid solution (350 mM malic acid in water), Malic acid 350 mM in water, read-out: Solubility T = 1 Day): 129 mg/mL (≈ 451 mM) | solubility at 1 day ([1]; aqueous acid solution (350 mM malic acid in water), Malic acid 350 mM in water, read-out: Solubility T = 1 Day Average): 122 mg/mL (≈ 427 mM) | solubility at 3 days ([1]; aqueous acid solution (350 mM malic acid in water), Malic acid 350 mM in water, read-out: Solubility T = 3 Days): 117 mg/mL (≈ 409 mM) | solubility at 3 days ([1]; aqueous acid solution (350 mM malic acid in water), Malic acid 350 mM in water, read-out: Solubility T = 3 Days Average): 116 mg/mL (≈ 408 mM) | solubility at 1 day ([1]; aqueous acid solution (350 mM oxalic acid in water), Oxalic acid 350 mM in water, read-out: Solubility T = 1 Day): 149 mg/mL (≈ 523 mM) | solubility at 1 day ([1]; aqueous acid solution (350 mM oxalic acid in water), Oxalic acid 350 mM in water, read-out: Solubility T = 1 Day Average): 142 mg/mL (≈ 498 mM) | solubility at 3 days ([1]; aqueous acid solution (350 mM oxalic acid in water), Oxalic acid 350 mM in water, read-out: Solubility T = 3 Days): 155 mg/mL (≈ 544 mM) | solubility at 3 days ([1]; aqueous acid solution (350 mM oxalic acid in water), Oxalic acid 350 mM in water, read-out: Solubility T = 3 Days Average): 155 mg/mL (≈ 544 mM) | solubility at 1 day ([1]; aqueous acid solution (350 mM oxoglutaric acid in water), Oxoglutaric acid 350 mM in water, read-out: Solubility T = 1 Day): 128 mg/mL (≈ 447 mM) | solubility at 1 day ([1]; aqueous acid solution (350 mM oxoglutaric acid in water), Oxoglutaric acid 350 mM in water, read-out: Solubility T = 1 Day Average): 129 mg/mL (≈ 453 mM) | solubility at 3 days ([1]; aqueous acid solution (350 mM oxoglutaric acid in water), Oxoglutaric acid 350 mM in water, read-out: Solubility T = 3 Days): 135 mg/mL (≈ 472 mM) | solubility at 3 days ([1]; aqueous acid solution (350 mM oxoglutaric acid in water), Oxoglutaric acid 350 mM in water, read-out: Solubility T = 3 Days Average): 134 mg/mL (≈ 468 mM) | solubility at 1 day ([1]; aqueous acid solution (350 mM tartaric acid in water), Tartaric acid 350 mM in water, read-out: Solubility T = 1 Day): 117 mg/mL (≈ 410 mM) | solubility at 1 day ([1]; aqueous acid solution (350 mM tartaric acid in water), Tartaric acid 350 mM in water, read-out: Solubility T = 1 Day Average): 137 mg/mL (≈ 481 mM) | solubility at 3 days ([1]; aqueous acid solution (350 mM tartaric acid in water), Tartaric acid 350 mM in water, read-out: Solubility T = 3 Days): 162 mg/mL (≈ 567 mM) | solubility at 3 days ([1]; aqueous acid solution (350 mM tartaric acid in water), Tartaric acid 350 mM in water, read-out: Solubility T = 3 Days Average): 163 mg/mL (≈ 571 mM) | Tlast ([2]; FormO50 (L-tartaric acid, NaOH up to pH 4.4, water), SC, 0.5 mg/kg): 4.4 h | Tlast ([2]; FormO50 (L-tartaric acid, NaOH up to pH 4.4, water), SC, 0.75 mg/kg): 5.6 h | AUC [2, 3]: 1149 ng·h/mL and 969 ng·h/mL | Cmax [2, 3]: 705 ng/mL and 815 ng/mL | Tlast [2, 3]: 6 h and 7 h and 6.8 h | AUC [2, 4]: 8817 ng·h/mL | Cmax [2, 4]: 5975 ng/mL | Tlast [2, 4]: 8 h | Tlast ([2]; FormO50 (L-tartaric acid, NaOH up to pH 4.4, water), SC, 10 mg/kg): 12 h | AUC [2, 5]: 1422 ng·h/mL | Cmax [2, 5]: 862 ng/mL | Tlast [2, 5]: 10.0 h and 8.5 h | Tmax [2, 5]: 22.8 min | Tlast ([2]; FormU100 (L-tartaric acid, propylene glycol 400 mg, benzylalcohol, water), SC, 1.5 mg/kg): 10.0 h | Tlast ([2]; FormV100 (L-tartaric acid, propylene glycol 500 mg, benzylalcohol, water), SC, 1.5 mg/kg): 10.0 h | Tlast ([2]; FormW100 (L-tartaric acid, propylene glycol 300 mg, benzylalcohol, water), SC, 1.5 mg/kg): 9.5 h | AUC ([2]; bovine, plasma, sc, 0.5 mg/kg, pH 4.4, FormO50 (L-tartaric acid, NaOH up to pH 4.4, water), 0.5 mg/kg, read-out: AUC): 371 ng·h/mL | Cmax ([2]; bovine, plasma, sc, 0.5 mg/kg, pH 4.4, FormO50 (L-tartaric acid, NaOH up to pH 4.4, water), 0.5 mg/kg, read-out: Cmax): 305 ng/mL | Tmax ([2]; bovine, plasma, sc, 0.5 mg/kg, pH 4.4, FormO50 (L-tartaric acid, NaOH up to pH 4.4, water), 0.5 mg/kg, read-out: Tmax): 18 min | AUC ([2]; bovine, plasma, sc, 0.75 mg/kg, pH 4.4, FormO50 (L-tartaric acid, NaOH up to pH 4.4, water), 0.75 mg/kg, read-out: AUC): 616 ng·h/mL | Cmax ([2]; bovine, plasma, sc, 0.75 mg/kg, pH 4.4, FormO50 (L-tartaric acid, NaOH up to pH 4.4, water), 0.75 mg/kg, read-out: Cmax): 397 ng/mL | Tmax ([2]; bovine, plasma, sc, 0.75 mg/kg, pH 4.4, FormO50 (L-tartaric acid, NaOH up to pH 4.4, water), 0.75 mg/kg, read-out: Tmax): 30 min | AUC ([2]; bovine, plasma, sc, 1 mg/kg, pH 4.4, FormO50 (L-tartaric acid, NaOH up to pH 4.4, water), 1 mg/kg, read-out: AUC): 973 ng·h/mL | Cmax ([2]; bovine, plasma, sc, 1 mg/kg, pH 4.4, FormO50 (L-tartaric acid, NaOH up to pH 4.4, water), 1 mg/kg, read-out: Cmax): 521 ng/mL | Tmax ([2]; bovine, plasma, sc, 1 mg/kg, pH 4.4, FormO50 (L-tartaric acid, NaOH up to pH 4.4, water), 1 mg/kg, read-out: Tmax): 36 min | AUC ([2]; bovine, plasma, sc, 1.5 mg/kg, FormU100 (L-tartaric acid, propylene glycol 400 mg, benzylalcohol, water), 1.5 mg/kg, read-out: AUC): 1680 ng·h/mL | Cmax ([2]; bovine, plasma, sc, 1.5 mg/kg, FormU100 (L-tartaric acid, propylene glycol 400 mg, benzylalcohol, water), 1.5 mg/kg, read-out: Cmax): 593 ng/mL | Tmax ([2]; bovine, plasma, sc, 1.5 mg/kg, FormU100 (L-tartaric acid, propylene glycol 400 mg, benzylalcohol, water), 1.5 mg/kg, read-out: Tmax): 37.8 min | AUC ([2]; bovine, plasma, sc, 1.5 mg/kg, FormV100 (L-tartaric acid, propylene glycol 500 mg, benzylalcohol, water), 1.5 mg/kg, read-out: AUC): 1520 ng·h/mL | Cmax ([2]; bovine, plasma, sc, 1.5 mg/kg, FormV100 (L-tartaric acid, propylene glycol 500 mg, benzylalcohol, water), 1.5 mg/kg, read-out: Cmax): 540 ng/mL | Tmax ([2]; bovine, plasma, sc, 1.5 mg/kg, FormV100 (L-tartaric acid, propylene glycol 500 mg, benzylalcohol, water), 1.5 mg/kg, read-out: Tmax): 105 min | AUC ([2]; bovine, plasma, sc, 1.5 mg/kg, FormW100 (L-tartaric acid, propylene glycol 300 mg, benzylalcohol, water), 1.5 mg/kg, read-out: AUC): 1520 ng·h/mL | Cmax ([2]; bovine, plasma, sc, 1.5 mg/kg, FormW100 (L-tartaric acid, propylene glycol 300 mg, benzylalcohol, water), 1.5 mg/kg, read-out: Cmax): 743 ng/mL | Tmax ([2]; bovine, plasma, sc, 1.5 mg/kg, FormW100 (L-tartaric acid, propylene glycol 300 mg, benzylalcohol, water), 1.5 mg/kg, read-out: Tmax): 52.8 min | AUC ([2]; bovine, plasma, sc, 1.5 mg/kg, pH 4.4, FormO100 (L-tartaric acid, NaOH up to pH 4.4, water), 1.5 mg/kg, read-out: AUC): 1680 ng·h/mL | Cmax ([2]; bovine, plasma, sc, 1.5 mg/kg, pH 4.4, FormO100 (L-tartaric acid, NaOH up to pH 4.4, water), 1.5 mg/kg, read-out: Cmax): 1010 ng/mL | Tmax ([2]; bovine, plasma, sc, 1.5 mg/kg, pH 4.4, FormO100 (L-tartaric acid, NaOH up to pH 4.4, water), 1.5 mg/kg, read-out: Tmax): 18.6 min | AUC ([2]; bovine, plasma, sc, 5 mg/kg, pH 4.4, FormO50 (L-tartaric acid, NaOH up to pH 4.4, water), 5 mg/kg, read-out: AUC): 7890 ng·h/mL | Cmax ([2]; bovine, plasma, sc, 5 mg/kg, pH 4.4, FormO50 (L-tartaric acid, NaOH up to pH 4.4, water), 5 mg/kg, read-out: Cmax): 3310 ng/mL | Tmax ([2]; bovine, plasma, sc, 5 mg/kg, pH 4.4, FormO50 (L-tartaric acid, NaOH up to pH 4.4, water), 5 mg/kg, read-out: Tmax): 24 min | AUC ([2]; bovine, plasma, sc, 10 mg/kg, pH 4.4, FormO50 (L-tartaric acid, NaOH up to pH 4.4, water), 10 mg/kg, read-out: AUC): 18800 ng·h/mL | Cmax ([2]; bovine, plasma, sc, 10 mg/kg, pH 4.4, FormO50 (L-tartaric acid, NaOH up to pH 4.4, water), 10 mg/kg, read-out: Cmax): 5930 ng/mL | Tmax ([2]; bovine, plasma, sc, 10 mg/kg, pH 4.4, FormO50 (L-tartaric acid, NaOH up to pH 4.4, water), 10 mg/kg, read-out: Tmax): 36 min

— US20210107874A1, “PHARMACEUTICAL FORMULATION OF CROTONYLAMINOPYRIDINE SALT” (priority 2017, published 2021)
